In PubChem BioAssay AID248 (DTP/NCI, 2004):
“And” between values parts separate entries of the source, which are not always exact repeats. Equal values may be shown once. Inconclusive results and toxic doses are left out. Cut-off read from the data, not from the text of the source: active = T/C of 150% or more; inactive = T/C below 125%.

Test system: L1210 leukemia ip in BDF1 mice, survival T/C
Assay: NCI In Vivo Anticancer Drug Screen. Data for tumor model L1210 Leukemia (intraperitoneal) in B6D2F1 (BDF1) mice
Settings: endpoint: mean survival time, higher = longer survival
Method in brief: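 Antitumor effect is assessed in tumor-bearing animals. Survival in the compound arm is compared with a vehicle-dosed control arm and expressed as their quotient.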

[1] = dose: 100.0 mg/kg/injection, schedule: Q01DX001 (ip), vehicle: saline
[2] = dose: 200.0 mg/kg/injection, schedule: Q01DX001 (ip), vehicle: saline
[3] = dose: 100.0 mg/kg/injection, schedule: Q01DX009 (ip), vehicle: Klucel (hydroxypropylcellulose) (HPC)
[4] = dose: 400.0 mg/kg/injection, schedule: Q01DX001 (ip), vehicle: saline
[5] = dose: 100.0 mg/kg/injection, schedule: Q04DX003 (ip), vehicle: saline with Tween-80
[6] = dose: 200.0 mg/kg/injection, schedule: Q04DX003 (ip), vehicle: saline with Tween-80
[7] = dose: 400.0 mg/kg/injection, schedule: Q04DX003 (ip), vehicle: saline with Tween-80
[8] = dose: 100.0 mg/kg/injection, schedule: Q04DX002 (ip), vehicle: Klucel (hydroxypropylcellulose) (HPC)
[9] = dose: 200.0 mg/kg/injection, schedule: Q04DX002 (ip), vehicle: Klucel (hydroxypropylcellulose) (HPC)
[10] = dose: 400.0 mg/kg/injection, schedule: Q04DX002 (ip), vehicle: Klucel (hydroxypropylcellulose) (HPC)
[11] = dose: 100.0 mg/kg/injection, schedule: Q04DX003 (ip), vehicle: Klucel (hydroxypropylcellulose) (HPC)
[12] = dose: 200.0 mg/kg/injection, schedule: Q04DX003 (ip), vehicle: Klucel (hydroxypropylcellulose) (HPC)
[13] = dose: 100.0 mg/kg/injection, schedule: Q01DX009 (ip), vehicle: saline
[14] = dose: 100.0 mg/kg/injection, schedule: Q04DX003 (ip), vehicle: saline
[15] = dose: 200.0 mg/kg/injection, schedule: Q01DX009 (ip), vehicle: saline
[16] = dose: 200.0 mg/kg/injection, schedule: Q04DX003 (ip), vehicle: saline

Measured: T/C

Cc1cc(N)c2cc(NC(=O)CCCCCCCCC(=O)Nc3ccc4nc(C)cc(N)c4c3)ccc2n1
inactive: dose: 8.9 mg/kg/injection, schedule: Q01DX Z (ip), vehicle: saline 103 % of control and 114 % of control | dose: 12.0 mg/kg/injection, schedule: Q01DX Z (ip), vehicle: methylcellulose (MC) 96 % of control | dose: 12.0 mg/kg/injection, schedule: Q01DX Z (ip), vehicle: saline 121 % of control | dose: 13.3 mg/kg/injection, schedule: Q01DX Z (ip), vehicle: carboxymethylcellulose (CMC) 114 % of control | dose: 13.3 mg/kg/injection, schedule: Q01DX Z (ip), vehicle: saline 111 % of control | dose: 18.0 mg/kg/injection, schedule: Q01DX Z (ip), vehicle: methylcellulose (MC) 100 % of control | dose: 18.0 mg/kg/injection, schedule: Q01DX Z (ip), vehicle: saline 119 % of control | dose: 20.0 mg/kg/injection, schedule: Q01DX Z (ip), vehicle: carboxymethylcellulose (CMC) 112 % of control | dose: 20.0 mg/kg/injection, schedule: Q01DX Z (ip), vehicle: saline 114 % of control and 122 % of control | dose: 27.0 mg/kg/injection, schedule: Q01DX Z (ip), vehicle: methylcellulose (MC) 96 % of control | dose: 27.0 mg/kg/injection, schedule: Q01DX Z (ip), vehicle: saline 123 % of control | dose: 30.0 mg/kg/injection, schedule: Q01DX Z (ip), vehicle: carboxymethylcellulose (CMC) 108 % of control | dose: 30.0 mg/kg/injection, schedule: Q01DX Z (ip), vehicle: saline 115 % of control | dose: 40.0 mg/kg/injection, schedule: Q01DX Z (ip), vehicle: methylcellulose (MC) 96 % of control | dose: 40.0 mg/kg/injection, schedule: Q01DX Z (ip), vehicle: saline 121 % of control | dose: 50.0 mg/kg/injection, schedule: Q01DX001 (ip), vehicle: saline 106 % of control | dose: 90.0 mg/kg/injection, schedule: Q01DX Z (ip), vehicle: methylcellulose (MC) 107 % of control | dose: 90.0 mg/kg/injection, schedule: Q01DX Z (ip), vehicle: saline 113 % of control and 121 % of control and 86 % of control | [1] 120 % of control | dose: 100.0 mg/kg/injection, schedule: Q04DX003 (ip), vehicle: carboxymethylcellulose (CMC) 121 % of control | dose: 135.0 mg/kg/injection, schedule: Q01DX Z (ip), vehicle: methylcellulose (MC) 93 % of control | [2] 112 % of control | dose: 200.0 mg/kg/injection, schedule: Q04DX003 (ip), vehicle: carboxymethylcellulose (CMC) 117 % of control | dose: 400.0 mg/kg/injection, schedule: Q04DX003 (ip), vehicle: carboxymethylcellulose (CMC) 116 % of control

CN(Cc1ccccc1)C(=O)c1cccc([N+](=O)[O-])c1
inactive: [3] 98 % of control | dose: 200.0 mg/kg/injection, schedule: Q01DX009 (ip), vehicle: Klucel (hydroxypropylcellulose) (HPC) 100 % of control | dose: 400.0 mg/kg/injection, schedule: Q01DX009 (ip), vehicle: Klucel (hydroxypropylcellulose) (HPC) 95 % of control

O=C(Oc1ccc(N=Cc2ccccc2)cc1)Oc1ccc(N=Cc2ccccc2)cc1
inactive: [1] 86 % of control | [2] 86 % of control | [4] 95 % of control

Cc1cc(C)nc(NNc2nc(C)cc(C)n2)n1
inactive: dose: 100.0 mg/kg/injection, schedule: Q01DX001 (ip), vehicle: saline with Tween-80 105 % of control | [5] 92 % of control | dose: 200.0 mg/kg/injection, schedule: Q01DX001 (ip), vehicle: saline with Tween-80 104 % of control | [6] 92 % of control | dose: 400.0 mg/kg/injection, schedule: Q01DX001 (ip), vehicle: saline with Tween-80 100 % of control | [7] 100 % of control

CC(C)CN1C(c2ccccc2)=CN(Cc2ccccc2)C=C1c1ccccc1
inactive: [8] 100 % of control | [9] 120 % of control | [10] 113 % of control

CCOC(=O)CNNC(=O)C(O)C(O)C(O)C(O)CO (configuration not stated)
inactive: [1] 87 % of control | [2] 100 % of control | [4] 100 % of control

CCCCNC(=S)N/N=C/c1ccccn1
inactive: [11] 90 % of control | [12] 97 % of control

CCOP(=O)(OCC)OC(=C(Cl)Cl)C(Cl)(Cl)Cl
inactive: dose: 100.0 mg/kg/injection, schedule: Q04DX002 (ip), vehicle: saline with Tween-80 115 % of control | dose: 200.0 mg/kg/injection, schedule: Q04DX002 (ip), vehicle: saline with Tween-80 102 % of control

Cc1cc(C(C)(C)C)c(OC(=S)N(C)C)c(C(C)(C)C)c1
inactive: dose: 12.5 mg/kg/injection, schedule: Q04DX003 (ip), vehicle: saline with Tween-80 96 % of control | dose: 25.0 mg/kg/injection, schedule: Q04DX003 (ip), vehicle: saline with Tween-80 94 % of control | dose: 50.0 mg/kg/injection, schedule: Q04DX003 (ip), vehicle: saline with Tween-80 100 % of control

NC(=Nc1ccccc1)SCc1ccc([N+](=O)[O-])cc1
inactive: dose: 50.0 mg/kg/injection, schedule: Q01DX009 (ip), vehicle: Klucel (hydroxypropylcellulose) (HPC) 108 % of control | dose: 100.0 mg/kg/injection, schedule: Q01DX005 (ip), vehicle: Klucel (hydroxypropylcellulose) (HPC) 97 % of control | [3] 104 % of control | [8] 104 % of control | dose: 200.0 mg/kg/injection, schedule: Q01DX005 (ip), vehicle: Klucel (hydroxypropylcellulose) (HPC) 92 % of control | [9] 112 % of control | [10] 89 % of control

CCCCCCCCCCCCCCCCN(C)C(=S)c1ccc(OC)cc1
inactive: [11] 101 % of control | [12] 101 % of control | dose: 400.0 mg/kg/injection, schedule: Q04DX003 (ip), vehicle: Klucel (hydroxypropylcellulose) (HPC) 94 % of control

COC1OC2COCOC2C2OCOC12 (configuration not stated)
inactive: dose: 50.0 mg/kg/injection, schedule: Q04DX002 (ip), vehicle: Klucel (hydroxypropylcellulose) (HPC) 95 % of control | [8] 98 % of control | [9] 98 % of control

[C-]#[N+]C([N+]#[C-])=S(C)C
inactive: dose: 50.0 mg/kg/injection, schedule: Q01DX009 (ip), vehicle: saline 102 % of control | [13] 109 % of control | [14] 103 % of control | [15] 105 % of control | [16] 101 % of control

CC(=N)/C(C(=O)NC1CCCCC1)=C(/C)O
inactive: [13] 101 % of control | [14] 104 % of control | [15] 103 % of control | [16] 109 % of control | dose: 400.0 mg/kg/injection, schedule: Q01DX009 (ip), vehicle: saline 93 % of control | dose: 400.0 mg/kg/injection, schedule: Q04DX003 (ip), vehicle: saline 96 % of control

O=C(Cl)c1cccc2c1sc1ccccc12
inactive: dose: 100.0 mg/kg/injection, schedule: Q01DX009 (ip), vehicle: saline with Tween-80 102 % of control | [5] 97 % of control | dose: 200.0 mg/kg/injection, schedule: Q01DX009 (ip), vehicle: saline with Tween-80 102 % of control | [6] 98 % of control | dose: 400.0 mg/kg/injection, schedule: Q01DX009 (ip), vehicle: saline with Tween-80 100 % of control | [7] 98 % of control

CC(C)CC(NC(=O)CNC(=O)OCc1ccccc1)C(=O)O (configuration not stated)
inactive: [5] 101 % of control | [6] 97 % of control | [7] 91 % of control
